Holding throughout (conditions): at 1 µM
For experiment [1], the target named is T1, Inhibitor of nuclear factor kappa-B kinase subunit epsilon (Homo sapiens) (UniProt Q14164).
T1 sequence (whole entry): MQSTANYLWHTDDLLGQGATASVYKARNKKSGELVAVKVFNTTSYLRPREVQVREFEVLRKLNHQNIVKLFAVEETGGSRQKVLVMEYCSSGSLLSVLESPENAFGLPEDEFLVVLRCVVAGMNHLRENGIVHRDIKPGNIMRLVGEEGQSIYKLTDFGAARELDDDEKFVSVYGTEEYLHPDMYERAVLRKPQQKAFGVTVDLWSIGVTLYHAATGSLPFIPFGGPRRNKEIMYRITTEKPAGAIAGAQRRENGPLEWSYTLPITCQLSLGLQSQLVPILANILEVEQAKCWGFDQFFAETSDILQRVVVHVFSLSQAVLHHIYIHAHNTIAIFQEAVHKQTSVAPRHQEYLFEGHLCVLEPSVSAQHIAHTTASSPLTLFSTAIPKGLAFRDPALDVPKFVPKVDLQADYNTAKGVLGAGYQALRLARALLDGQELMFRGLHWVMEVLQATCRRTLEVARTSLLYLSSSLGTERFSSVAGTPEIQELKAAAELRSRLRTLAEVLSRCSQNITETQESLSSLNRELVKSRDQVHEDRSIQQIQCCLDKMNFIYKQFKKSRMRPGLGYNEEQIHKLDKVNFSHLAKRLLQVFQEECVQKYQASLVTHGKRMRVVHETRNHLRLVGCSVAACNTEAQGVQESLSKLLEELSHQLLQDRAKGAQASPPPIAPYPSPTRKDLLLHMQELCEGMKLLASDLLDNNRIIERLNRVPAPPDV

In experiment [2] the target is T2, Inhibitor of nuclear factor kappa-B kinase subunit beta (Homo sapiens) (UniProt O14920).
T2 sequence (whole entry): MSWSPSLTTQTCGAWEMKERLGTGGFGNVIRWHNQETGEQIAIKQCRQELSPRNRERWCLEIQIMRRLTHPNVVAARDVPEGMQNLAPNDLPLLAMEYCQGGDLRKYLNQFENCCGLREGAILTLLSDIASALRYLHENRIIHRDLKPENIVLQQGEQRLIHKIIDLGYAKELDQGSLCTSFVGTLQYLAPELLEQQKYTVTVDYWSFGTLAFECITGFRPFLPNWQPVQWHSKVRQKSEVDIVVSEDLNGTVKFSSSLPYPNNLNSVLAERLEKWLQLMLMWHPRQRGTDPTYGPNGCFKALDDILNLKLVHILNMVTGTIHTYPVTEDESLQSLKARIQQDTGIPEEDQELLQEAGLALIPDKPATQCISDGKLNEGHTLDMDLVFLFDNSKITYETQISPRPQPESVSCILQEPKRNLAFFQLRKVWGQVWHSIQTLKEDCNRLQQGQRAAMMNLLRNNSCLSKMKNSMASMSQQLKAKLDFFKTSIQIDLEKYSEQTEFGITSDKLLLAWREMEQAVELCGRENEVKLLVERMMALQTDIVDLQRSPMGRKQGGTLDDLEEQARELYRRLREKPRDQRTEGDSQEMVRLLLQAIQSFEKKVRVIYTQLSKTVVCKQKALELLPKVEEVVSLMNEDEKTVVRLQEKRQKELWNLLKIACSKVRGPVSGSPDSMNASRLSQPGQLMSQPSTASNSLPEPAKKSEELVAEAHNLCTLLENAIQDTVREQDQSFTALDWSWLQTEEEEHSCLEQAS

The target of experiment [3] is T3, Inhibitor of nuclear factor kappa-B kinase subunit alpha (Homo sapiens) (UniProt O15111).
T3 sequence (whole entry): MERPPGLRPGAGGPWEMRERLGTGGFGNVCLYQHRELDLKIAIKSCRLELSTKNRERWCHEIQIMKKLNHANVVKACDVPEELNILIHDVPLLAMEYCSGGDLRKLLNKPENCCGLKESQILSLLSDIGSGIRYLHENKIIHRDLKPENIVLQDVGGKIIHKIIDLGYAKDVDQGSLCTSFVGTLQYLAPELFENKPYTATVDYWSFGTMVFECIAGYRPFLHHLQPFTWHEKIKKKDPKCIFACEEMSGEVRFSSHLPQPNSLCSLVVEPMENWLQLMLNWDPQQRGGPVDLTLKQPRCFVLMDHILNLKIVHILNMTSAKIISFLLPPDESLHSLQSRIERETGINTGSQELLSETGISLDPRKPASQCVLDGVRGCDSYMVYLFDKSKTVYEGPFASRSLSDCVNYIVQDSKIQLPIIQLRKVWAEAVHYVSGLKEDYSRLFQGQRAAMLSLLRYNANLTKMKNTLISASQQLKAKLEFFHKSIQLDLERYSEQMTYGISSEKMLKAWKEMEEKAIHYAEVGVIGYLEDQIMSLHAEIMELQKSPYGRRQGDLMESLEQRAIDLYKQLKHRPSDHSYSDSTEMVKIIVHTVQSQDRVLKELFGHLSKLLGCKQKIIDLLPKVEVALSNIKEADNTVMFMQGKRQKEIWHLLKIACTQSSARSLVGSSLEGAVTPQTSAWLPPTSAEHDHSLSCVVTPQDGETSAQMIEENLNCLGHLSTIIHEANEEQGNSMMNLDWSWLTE

A word on the inhibition: it is the relative decrease from the control value, in per cent.

Structures are written as SMILES. Values joined by “and” are separate entries in the source; they are usually repeats but may differ in a detail not shown here. Equal entries are not always repeated.

As for `COc1cc(N2CCN(C(C)C)CC2)ccc1Nc1nc(Nc2ccc(F)cc2C(=O)NC[C@@H](O)CO)c2cc[nH]c2n1`, the inhibition was 0% and 1% in experiment [1]; -1% and -2% in experiment [2]; 2% and 3% in experiment [3].

On to `CN(C)CCCn1c(-c2nonc2N)nc2cnccc21`, for which the inhibition is 2% in experiment [1]; -5% and -4% in experiment [2]; 8% and 10% in experiment [3].

As for `COc1ccc(-c2nn3ncccc3c2-c2ccnc(Nc3ccc4c(c3)OCCO4)n2)cc1`, the results for the inhibition in experiment [1], in experiment [2] and in experiment [3] were 1%, -4% and 1%, respectively.

Regarding `Cn1cc(C=C2C(=O)Nc3cccnc32)c2ccccc21`, the inhibition in experiment [1] is 7% and 10%; in experiment [2], -5% and 0%; in experiment [3], 15%.

Turning to `CCn1c(-c2nonc2N)nc2c(C#CC(C)(C)O)ncc(OCC3CCNCC3)c21`, the inhibition was 96% in experiment [1]; -3% in experiment [2]; 9% and 3% in experiment [3].

With `CS(=O)(=O)CCN(CC#N)Cc1ccc(-c2ccc3ncnc(Nc4ccc(OCc5cccc(F)c5)c(Cl)c4)c3c2)o1`, the inhibition was 1% and 4% in experiment [1]; -2% and -1% in experiment [2]; 1% in experiment [3].

On to `[O-][S+]1CCN(Cc2ccc(-c3ccc4ncnc(Nc5ccc(OCc6cccc(F)c6)c(Cl)c5)c4c3)o2)CC1`, for which the inhibition in experiment [1] was 1% and 2%; in experiment [2], 2% and 3%; in experiment [3], 16% and 1%.

In the case of `COc1ccc2cc(-c3c(-c4ccncc4)nc(-c4ccc([S+](C)[O-])cc4C)n3C)ccc2c1` (configuration not stated), the inhibition in experiment [1] is -1% and -2%; in experiment [2], 1% and 0%; in experiment [3], -4% and -5%.

With `Fc1ccc(Nc2nccc(-c3c(-c4ccc(C(F)(F)F)cc4)nn4ncccc34)n2)cc1F`, the inhibition in experiment [1] was -3% and -2%; in experiment [2], 1% and -2%; in experiment [3] it was 19% and 13%.

As to `Cc1ccc(O)cc1Nc1ccnc2ccc(S(C)(=O)=O)cc12`, the inhibition in experiment [1] is 0% and 2%; in experiment [2] it was -6% and -8%; in experiment [3] it was 5%.

Take `COc1ccc(COc2ccc(Cc3cnc(N)nc3N)cc2OC)cc1`: the inhibition in experiment [1] was -4% and -2%; in experiment [2], -2% and -5%; in experiment [3], 2%.

As to `Nc1nc(-c2ccc(F)cc2)c(-c2ccc3ncccc3n2)s1`, the inhibition in experiment [1] was 0% and 1%; in experiment [2], -3% and -1%; in experiment [3], 0% and 1%.

In the case of `CS(=O)(=O)Nc1ccc(N/C=C2\C(=O)Nc3ccccc32)cc1`, the inhibition in experiment [1] is 25% and 24%; in experiment [2], -1% and -4%; in experiment [3], 4% and 0%.

Regarding `c1ccc(Cc2nc3ccc(Nc4ncnc5ccccc45)cc3[nH]2)cc1`, the inhibition in experiment [1] is -3% and -2%; in experiment [2] it was -5% and -6%; in experiment [3] it was -3% and 1%.

Consider `Oc1cccc(-c2nc(-c3ccccc3)[nH]c2-c2ccncc2)c1`, for which the inhibition in experiment [1] was -1% and -3%; in experiment [2], 1% and 0%; in experiment [3], 2%.

For `c1cnn2ncc(-c3ccnc(Nc4ccc5c(c4)OCCO5)n3)c2c1`, the inhibition in experiment [1] was 23% and 21%; in experiment [2], -4%; in experiment [3], 0% and -2%.

Turning to `COc1cc(Nc2ncc(-c3ccccc3)o2)cc(OC)c1`, the inhibition is 0% and -1% in experiment [1]; 0% and -4% in experiment [2]; 1% in experiment [3].

On to `Cc1ccc(-c2cc3c(NC(=O)C4CC4)ncnc3o2)cc1`, for which the inhibition in experiment [1] was -4% and -3%; in experiment [2] it was -2% and -4%; in experiment [3] it was 0% and -1%.

In the case of `NS(=O)(=O)c1ccc(Nc2cc(-c3cccc(O)c3)n[nH]2)cc1`, the inhibition in experiment [1] was -2% and -3%; in experiment [2], -3% and -2%; in experiment [3], -1% and 0%.

With `CC1=C(C(=O)Nc2ccc3[nH]ncc3c2)C(c2ccc3ccccc3c2)CC(=O)N1` (configuration not stated), the inhibition in experiment [1] is 0% and -3%; in experiment [2], -3%; in experiment [3], 0% and 11%.

On to `COc1cc2ncn(-c3cc(OCc4ccccc4C(F)(F)F)c(C(N)=O)s3)c2cc1OC`, for which the inhibition in experiment [1] was 0% and 3%; in experiment [2] it was -1% and 0%; in experiment [3] it was 2% and 0%.

With `Cc1nnc(-c2cccc(-c3ccc(C(=O)NCC4CC4)cc3)c2)o1`, the inhibition in experiment [1] was -1%; in experiment [2], -4%; in experiment [3] it was 3% and 4%.

As for `COc1ccc(-c2cc(-c3c[nH]nc3-c3ccccn3)ccn2)cc1`, the inhibition in experiment [1] is -2% and -1%; in experiment [2] it was -7% and -8%; in experiment [3], 6%.

Regarding `NC(=O)c1sc(-n2cnc3cc(C(F)(F)F)ccc32)cc1OCc1ccccc1Br`, the inhibition was 3% and 2% in experiment [1]; -4% and -3% in experiment [2]; 1% and 3% in experiment [3].

For `COc1ccc(-c2oc3ncnc(N)c3c2-c2ccc(NC(=O)Nc3cc(C(F)(F)F)ccc3F)cc2)cc1`, the inhibition is 9% and 10% in experiment [1]; -8% and -6% in experiment [2]; 2% and 1% in experiment [3].

Consider `NS(=O)(=O)c1ccc(N/N=C2\C(=O)Nc3ccc(Cl)cc32)cc1`, for which the inhibition was 2% and 1% in experiment [1]; -3% and -5% in experiment [2]; 2% in experiment [3].

Consider `OCCCNc1nccc(-c2c(-c3ccc(F)cc3)nn3cc(C(F)(F)F)ccc23)n1`, for which the inhibition is -3% and 0% in experiment [1]; -4% and -5% in experiment [2]; 2% in experiment [3].

As to `CCn1c(-c2nonc2N)nc2cncc(C(=O)N3CC[C@H](N)C3)c21`, the inhibition was 54% and 53% in experiment [1]; -1% and -5% in experiment [2]; 35% and 28% in experiment [3].

For the molecule `CS(=O)(=O)CCNCc1ccoc1-c1ccc2ncnc(Nc3ccc(OCc4ccccc4)cc3)c2c1`, the inhibition is 3% in experiment [1]; 5% and 4% in experiment [2]; -2% in experiment [3].

For `CCn1c(-c2nonc2N)nc2c(C#CC(C)(C)O)ncc(OC[C@@H]3CCCN3)c21`, the inhibition in experiment [1] was 97%; in experiment [2], -2% and -1%; in experiment [3], 18% and 19%.

As for `CCn1c(-c2nonc2N)nc2c(C#CC(C)(C)O)ncc(OC3CCNCC3)c21`, the inhibition in experiment [1] was 95% and 96%; in experiment [2] it was -4%; in experiment [3], 9% and 5%.

As for `CC(C)=Cc1cccc2c1/C(=N/Nc1ccc(S(N)(=O)=O)cc1)C(=O)N2`, the inhibition is 33% in experiment [1]; -1% and 0% in experiment [2]; -2% and 1% in experiment [3].

With `CN(C)C(=O)O[C@@H]1CN[C@@H](C#Cc2cc3ncnc(Nc4ccc(OCc5cccc(F)c5)c(Cl)c4)c3s2)C1`, the inhibition was -1% in experiment [1]; -4% and -7% in experiment [2]; 2% and 1% in experiment [3].

With `CCS(=O)(=O)c1ccc(OC)c(Nc2nccc(N(C)c3ccc4c(C)n[nH]c4c3)n2)c1`, the inhibition in experiment [1] is 8% and 7%; in experiment [2] it was 3% and -7%; in experiment [3] it was -7% and 2%.

The record behind these values is ChEMBL document CHEMBL2007661, “Compounds: GSK PKIS; Assays: UNC Frye lab” (2012).
